pEC50, pIC50: −log10 of the molar value.
Legend:
S1P1 [1] = target: T1, S1P1 (Homo sapiens (Human), UniProt P21453); experiment: S1P1 Binding Assay (33P-S1P ligand competition, CHO membranes); conditions: membranes from CHO cells expressing human S1P1
Procedure: Membranes were prepared from CHO cells expressing human S1P1. Cells pellets (1×10^9 cells/pellet) were suspended in buffer containing 20 mM HEPES (4-(2-hydroxyethyl)-1-piperazineethanesulfonic acid), pH 7.5, 50 mM NaCl, 2 mM EDTA (ethylenediamine tetraacetic acid) and Protease Inhibitor cocktail (Roche), and disrupted on ice using the Polytron homogenizer. The homogenate was centrifuged at 20,000 rpm (48,000 g) and the supernatant was discarded. The membrane pellets were resuspended in buffer containing 50 mM HEPES, pH 7.5, 100 mM NaCl, 1 mM MgCl2, 2 mM EDTA and stored in aliquots at −80° C. after protein concentration determination.
Membranes (2 μg/well) and 0.03 nM final concentration of ^33P-S1P ligand (1 mCi/ml, Perkin Elmer or American Radiolabeled Chemicals) diluted in assay buffer (50 mM HEPES, pH7.4, 5 mM MgCl2, 1 mM CaCl2), 0.5% fatty acid free BSA (bovine serum albumin), 1 mM NaF) were added to the compound plates (384 Falcon v-bottom plate (0.5 μl/well in a 11 point, 3-fold dilution). Binding was performed for 45 minutes at room temperature, terminated by collecting the membranes onto 384-well Millipore FB filter plates, and radioactivity was measured by TOPCOUNT®. The competition data of the test compounds over a range of concentrations was plotted as percentage inhibition of radioligand specific binding. The IC50 is defined as the concentration of competing ligand needed to reduce specific binding by 50%.

S1P3 = S1P3 (Homo sapiens (Human), UniProt Q99500); experiment: Receptor [35S] GTPγS Binding Assay, S1P3; type: biochemical; conditions: membranes from EDG3-Gal5-bla HEK293T cells
Sequence of S1P3 (Q99500 whole entry): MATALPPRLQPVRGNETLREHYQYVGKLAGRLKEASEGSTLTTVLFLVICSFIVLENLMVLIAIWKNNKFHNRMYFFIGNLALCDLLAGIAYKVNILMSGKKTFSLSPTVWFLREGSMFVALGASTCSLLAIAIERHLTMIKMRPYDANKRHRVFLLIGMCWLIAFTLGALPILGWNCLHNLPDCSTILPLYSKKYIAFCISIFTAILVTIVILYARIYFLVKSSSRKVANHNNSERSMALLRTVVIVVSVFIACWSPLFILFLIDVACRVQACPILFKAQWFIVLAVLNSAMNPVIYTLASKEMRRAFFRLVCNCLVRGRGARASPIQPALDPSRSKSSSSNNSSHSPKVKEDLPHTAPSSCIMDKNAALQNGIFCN
Procedure: (§1) Receptor [^35S] GTPγS Binding Assays:
(§2) Compounds were loaded in a 384 Falcon v-bottom plate (0.5 μl/well in an 11 point, 3-fold dilution). Membranes prepared from S1P1/CHO cells or EDG3-Gal5-bla HEK293T cells (EDG3 equivalent S1P3) were added to the compound plate ([…], final protein 3 μg/well) with MULTIDROP®. [^35S]GTP (1250 Ci/mmol, Perkin Elmer) was diluted in assay buffer: 20 mM HEPES, pH7.5, 10 mM MgCl2, 150 mM NaCl, 1 mM EGTA (ethylene glycol tetraacetic acid), 1 mM DTT (Dithiothreitol), 10 μM GDP, 0.1% fatty acid free BSA, and 10 μg/ml Saponin to 0.4 nM. 40 μl of the [35S] GTP solution was added to the compound plate with a final concentration of 0.2 nM. The reaction was kept at room temperature for 45 min. At the end of incubation, all the mixtures in the compound plate were transferred to Millipore 384-well FB filter plates via the VELOCITY11 ® Vprep liquid handler. The filter plate was washed with water 4 times by using the manifold Embla plate washer and dried at 60° C. for 45 min. MicroScint 20 scintillation fluid (30 μl) was added to each well for counting on the Packard TOPCOUNT®. EC50 is defined as the agonist concentration that corresponds to 50% of the Ymax (maximal response) obtained for each individual compound tested.

S1P1 [2] = target: T1, S1P1; experiment: Receptor [35S] GTPγS Binding Assay, S1P1; type: biochemical; conditions: membranes from S1P1/CHO cells
Procedure: as §1, §2
A smaller value for GTPγS S1P1 EC50 value indicated greater activity for the compound in the GTPγS S1P1 binding assay. Thus the compounds of the present invention may be used in treating, preventing, or curing various S1P1 receptor-related conditions. The compounds have potential use in treating, preventing, or curing autoimmune and inflammatory diseases such as multiple sclerosis, rheumatoid arthritis, inflammatory bowel disease, lupus, psoriasis, or minimizing or reducing rejection of transplanted organs.

T1 sequence (P21453 whole entry): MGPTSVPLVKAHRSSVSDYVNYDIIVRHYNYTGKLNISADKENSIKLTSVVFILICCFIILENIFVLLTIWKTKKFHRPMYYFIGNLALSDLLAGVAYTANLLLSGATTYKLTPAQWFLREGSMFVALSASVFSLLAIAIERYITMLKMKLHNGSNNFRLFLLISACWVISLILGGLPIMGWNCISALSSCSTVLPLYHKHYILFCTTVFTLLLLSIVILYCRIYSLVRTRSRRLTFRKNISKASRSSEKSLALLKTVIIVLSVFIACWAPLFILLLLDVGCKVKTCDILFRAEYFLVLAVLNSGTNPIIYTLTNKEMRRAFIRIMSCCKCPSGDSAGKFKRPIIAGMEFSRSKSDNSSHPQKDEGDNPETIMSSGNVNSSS

`C/C(=N\OCCc1ccccc1)c1ccc(C2CC[C@](N)(COP(=O)(O)O)C2)cc1` (stereo in doubt) [Example 73, ((1R,3R)-1-amino-3-(4-((E)-1-(phenethoxyimino)ethyl)phenyl)cyclopentyl)methyl dihydrogen phosphate] was tested, and the pIC50 (S1P1 [1]) was 7.30, the pEC50 (S1P3) was under 4.52 and the pEC50 (S1P1 [2]) was 7.35.
`C/C(=N\OCc1ccc(C2CCCCC2)c(C(F)(F)F)c1)c1ccc(S(=O)(=O)N2CCC(N)(COP(=O)(O)O)CC2)cc1` [Example 70, (E)-(4-amino-1-((4-(1-(((4-cyclohexyl-3-(trifluoromethyl)benzyl)oxy)imino)ethyl)phenyl)sulfonyl)piperidin-4-yl) methyl dihydrogen phosphate] was tested, and the pIC50 (S1P1 [1]) was 6.04, the pEC50 (S1P3) was under 4.74 and the pEC50 (S1P1 [2]) was 6.39.
In the case of `C/C(=N\OCCCc1ccccc1)c1ccc(C(=O)N2CCCC(N)(COP(=O)(O)O)C2)cc1` (single isomer, unassigned) [Example 69, (E)-(3-amino-1-(4-(1-((3-phenylpropoxy)imino)ethyl)benzoyl)piperidin-3-yl)methyl dihydrogen phosphate], the pIC50 (S1P1 [1]) was 6.05 and the pEC50 (S1P1 [2]) was 6.11.
Work on `CC(=NOCCc1ccccc1)c1ccc(C(=O)N2CCC(N)(COP(=O)(O)O)C2)cc1` (stereo not drawn) [Example 55, (3-amino-1-(4-(1-(phenethoxyimino)ethyl)benzoyl)pyrrolidin-3-yl)methyl Dihydrogen Phosphate] yielded a pEC50 (S1P3) of under 4.22 and a pEC50 (S1P1 [2]) of 5.81.
`C/C(=N\OCc1ccc(C2CCCCC2)c(C(F)(F)F)c1)c1ccc(C(=O)N2CCC(N)(COP(=O)(O)O)C2)cc1` (single isomer, unassigned) [Example 60, (E)-(3-amino-1-(4-(1-(((4-cyclohexyl-3-(trifluoromethyl)benzyl)oxy)imino)ethyl)benzoyl)pyrrolidin-3-yl)methyl dihydrogen phosphate] showed a pIC50 (S1P1 [1]) of 7.55, a pEC50 (S1P3) of under 5.20 and a pEC50 (S1P1 [2]) of 6.36.
`C/C(=N\OCc1ccc(C2CCCCC2)c(C(F)(F)F)c1)c1ccc(C(=O)N2CCC(N)(COP(=O)(O)O)C2)cc1` (single isomer, unassigned) [Example 59, (E)-(3-amino-1-(4-(1-(((4-cyclohexyl-3-(trifluoromethyl)benzyl)oxy)imino)ethyl)benzoyl)pyrrolidin-3-yl)methyl dihydrogen phosphate] showed a pIC50 (S1P1 [1]) of 7.98, a pEC50 (S1P3) of under 5.51 and a pEC50 (S1P1 [2]) of 6.87.
`C/C(=N\OCCCc1ccccc1)c1ccc(C(=O)N2CCC(N)(COP(=O)(O)O)C2)cc1` (single isomer, unassigned) [Example 61, (E)-(3-amino-1-(4-(1-((3-phenylpropoxy)imino)ethyl)benzoyl)pyrrolidin-3-yl)methyl dihydrogen phosphate] showed a pIC50 (S1P1 [1]) of 6.90, a pEC50 (S1P3) of under 5.20 and a pEC50 (S1P1 [2]) of 6.69.
With `C/C(=N\OCc1ccc(C2CCCCC2)c(C(F)(F)F)c1)c1ccc(C(=O)N2CCCC(N)(COP(=O)(O)O)C2)cc1` (single isomer, unassigned) [Example 66, (E)-(3-amino-1-(4-(1-(((4-cyclohexyl-3-(trifluoromethyl)benzyl)oxy)imino)ethyl)benzoyl)piperidin-3-yl)methyl dihydrogen phosphate] the pIC50 (S1P1 [1]) was 7.21, the pEC50 (S1P3) was 5.03 and the pEC50 (S1P1 [2]) was 6.71.
`CC(=NOCc1ccccc1)c1ccc([C@@H]2CC[C@](N)(COP(=O)(O)O)C2)cc1` [Example 39, ((1R,3R)-1-amino-3-(4-(1-((benzyloxy)imino)ethyl)phenyl)cyclopentyl)methyl dihydrogen phosphate] gave a pIC50 (S1P1 [1]) of 6.06.
Compound `CC(=NOCc1ccc([N+](=O)[O-])cc1)c1ccc([C@@H]2CC[C@](N)(COP(=O)(O)O)C2)cc1` [Example 42, ((1R,3R)-1-amino-3-(4-(1-(((4-nitrobenzyl)oxy)imino)ethyl)phenyl)cyclopentyl) methyl dihydrogen phosphate] has a pEC50 (S1P3) of under 4.52 and a pEC50 (S1P1 [2]) of 7.75.
With `C/C(=N\OCCCc1ccccc1)c1ccc(C(=O)N2CCCC(N)(COP(=O)(O)O)C2)cc1` (single isomer, unassigned) [Example 68, (E)-(3-amino-1-(4-(1-((3-phenylpropoxy)imino)ethyl)benzoyl)piperidin-3-yl)methyl dihydrogen phosphate] the pIC50 (S1P1 [1]) was 6.44, the pEC50 (S1P3) was 5.03 and the pEC50 (S1P1 [2]) was 6.40.
`C/C(=N\OCCc1ccccc1)c1ccc(C(=O)N2CCC(N)(COP(=O)(O)O)CC2)cc1` [Example 56, (4-amino-1-(4-(1-(phenethoxyimino)ethyl)benzoyl)piperidin-4-yl)methyl dihydrogen phosphate] gave a pEC50 (S1P3) of under 4.22 and a pEC50 (S1P1 [2]) of 6.53.
Compound `CC(=NOCCCc1ccccc1)c1ccc([C@H]2CC[C@](N)(COP(=O)(O)O)C2)cc1` [Example 52] has a pIC50 (S1P1 [1]) of 7.50, a pEC50 (S1P3) of under 4.52 and a pEC50 (S1P1 [2]) of 8.96.
With `COc1cccc(/C(C)=N/OCc2ccc([C@H]3CC[C@](N)(COP(=O)(O)O)C3)cc2)c1` [Example 54, ((1R,3S)-1-amino-3-(4-(((((E)-1-(3-methoxyphenyl)ethylidene)amino)oxy)methyl)phenyl)cyclopentyl) methyl dihydrogen phosphate] the pIC50 (S1P1 [1]) was 7.85.
Work on `CC(=NOCc1ccc(F)cc1)c1ccc([C@@H]2CC[C@](N)(COP(=O)(O)O)C2)cc1` [Example 43, ((1R,3R)-1-amino-3-(4-(1-(((4-fluorobenzyl)oxy)imino)ethyl)phenyl)cyclopentyl) methyl dihydrogen phosphate] yielded a pEC50 (S1P3) of under 4.52 and a pEC50 (S1P1 [2]) of 7.58.
`CC(=NOCC1CC1)c1ccc([C@@H]2CC[C@](N)(COP(=O)(O)O)C2)cc1` [Example 38, ((1R,3R)-1-amino-3-(4-(1-((cyclopropylmethoxy)imino)ethyl)phenyl)cyclopentyl)methyl Dihydrogen Phosphate] was tested, and the pIC50 (S1P1 [1]) was 6.55, the pEC50 (S1P3) was under 4.52 and the pEC50 (S1P1 [2]) was under 4.52.
`C/C(=N\OCCCc1ccccc1)c1ccc([C@@H]2CC[C@](N)(COP(=O)(O)O)C2)cc1` [Example 41, ((1R,3R)-1-amino-3-(4-((E)-1-((3-phenylpropoxy)imino)ethyl)phenyl)cyclopentyl) methyl dihydrogen phosphate] showed a pIC50 (S1P1 [1]) of 7.70, a pEC50 (S1P3) of 6.11 and a pEC50 (S1P1 [2]) of 7.60.
`NC1(COP(=O)(O)O)CCN(C(=O)c2ccc(/C(=N/OCCCc3ccccc3)C(F)(F)F)cc2)C1` (stereo not drawn) [Example 65, (Z)-(3-amino-1-(4-(2,2,2-trifluoro-1-((3-phenylpropoxy)imino)ethyl)benzoyl)pyrrolidin-3-yl)methyl dihydrogen phosphate] was tested, and the pIC50 (S1P1 [1]) was 5.70, the pEC50 (S1P3) was under 5.20 and the pEC50 (S1P1 [2]) was 6.20.
`C/C(=N\OCCCc1ccccc1)c1ccc(C(=O)N2CCC(N)(COP(=O)(O)O)CC2)cc1` [Example 57, (4-amino-1-(4-(1-((3-phenylpropoxy)imino)ethyl)benzoyl)piperidin-4-yl)methyl dihydrogen phosphate] was tested, and the pIC50 (S1P1 [1]) was 5.73, the pEC50 (S1P3) was under 4.22 and the pEC50 (S1P1 [2]) was 6.49.
In the case of `CC/C(=N\OCCCc1ccccc1)c1ccc(C(=O)N2CCC(N)(COP(=O)(O)O)C2)cc1` (single isomer, unassigned) [Example 64, (E)-(3-amino-1-(4-(1-((3-phenylpropoxy)imino)propyl)benzoyl)pyrrolidin-3-yl) methyl dihydrogen phosphate], the pIC50 (S1P1 [1]) was 5.60, the pEC50 (S1P3) was under 5.20 and the pEC50 (S1P1 [2]) was 6.30.
Work on `C/C(=N\OCc1ccc(C2CCCCC2)c(C(F)(F)F)c1)c1ccc([C@@H]2CC[C@](N)(COP(=O)(O)O)C2)cc1` [Example 40, ((1R,3R)-1-amino-3-(4-((E)-1-(((4-cyclohexyl-3-(trifluoromethyl)benzyl)oxy)imino)ethyl)phenyl)cyclopentyl) methyl dihydrogen phosphate] yielded a pIC50 (S1P1 [1]) of 7.55, a pEC50 (S1P3) of under 4.22 and a pEC50 (S1P1 [2]) of 7.42.

Source: patent US11059784B2, “Oxime ether compounds” (BRISTOL-MYERS SQUIBB COMPANY, priority 2017, dated 2021)
